Columns and labels:
[1] = 101 kPa, Liquid; for viscosity: Falling or rolling sphere viscometry; for mass density: Vibrating tube method
[2] = xn = mol fraction of the nth substance listed; settings: 101 kPa, Liquid, x2 = 0; for viscosity: Falling or rolling sphere viscometry; for mass density: Vibrating tube method
[3] = molar heat capacity at constant pressure; settings: 101.33 kPa, Liquid, DSC

CC(C)O [propan-2-ol]
[1]
Settings	mass density [kg/m3]	viscosity [mPa·s]
283.15 K	793.67	3.352
288.15 K	789.58	2.843
293.15 K	785.44	2.423
298.15 K	781.24	2.08
303.15 K	776.97	1.792
308.15 K	772.62	1.554
313.15 K	768.18	1.352
318.15 K	763.65	1.183
323.15 K	759.01	1.039
328.15 K	754.26	0.918
333.15 K	749.39	0.813

CC(C)O [propan-2-ol] + Cn1cc[n+](CCC[N+](C)(C)C)c1.N#C[N-]C#N.N#C[N-]C#N
[2]
Settings	mass density [kg/m3]	viscosity [mPa·s]
283.15 K	793.67	3.352
288.15 K	789.58	2.843
293.15 K	785.44	2.423
298.15 K	781.24	2.08
303.15 K	776.97	1.792
308.15 K	772.62	1.554
313.15 K	768.18	1.352
318.15 K	763.65	1.183
323.15 K	759.01	1.039
328.15 K	754.26	0.918
333.15 K	749.39	0.813

Cn1cc[n+](CCC[N+](C)(C)C)c1.N#C[N-]C#N.N#C[N-]C#N
Settings	mass density, [1] [kg/m3]	molar heat capacity at constant pressure, [3] [J/K/mol]	viscosity, [1] [mPa·s]
283.15 K	1162.82	–	4998
288.15 K	1159.76	–	2736
293.15 K	1156.74	–	1608
298.15 K	1153.73	519.44	1007
303.15 K	1150.76	521.65	662.9
308.15 K	1147.8	523.85	455.4
313.15 K	1144.89	526.06	324.6
318.15 K	1142	527.95	239.7
323.15 K	1139.11	530.48	181.2
328.15 K	1136.24	532.69	141.1
333.15 K	1133.4	535.21	111.9
338.15 K	–	537.1	–
343.15 K	–	539.62	–
348.15 K	–	541.83	–
353.15 K	–	543.72	–
358.15 K	–	546.25	–
363.15 K	–	548.14	–
368.15 K	–	550.66	–
373.15 K	–	553.19	–
378.15 K	–	555.39	–
383.15 K	–	557.92	–
388.15 K	–	560.12	–
393.15 K	–	562.33	–
398.15 K	–	564.85	–
403.15 K	–	567.06	–
408.15 K	–	569.27	–
413.15 K	–	571.79	–
418.15 K	–	574.32	–
423.15 K	–	576.21	–
